Test results taken from patent publication US11771765B2, “Light augmented treatment method” (The Procter & Gamble Company, priority 2019, dated 2023).

Experiments:
protoporphyrin IX (PPIX) [1] = test: Protoporphyrin IX levels in treated M. furfur cells by HPLC; assay type: cell-based; settings: for PPIX levels upon treatment: non-chelator antifungals, Table 11
Description: PPIX absorb light in the 400 nm range, and when light is absorbed, PPIX transitions to an excited triplet state that can react with triplet oxygen to produce singlet oxygen or the excited porphyrin can generate ROS through single electron processes. These reactive species result in a loss of cell viability.
(§1) M. furfur cells are exposed to other antifungals that are not considered chelators (i.e. selenium sulfide (SeSx), Sulfur, Climbazole, and Terbinafine). After treatment, cells are then exposed to light, or not exposed to light. Both OD are measured to measure growth and PPIX levels are measured.

M. furfur cells = test: Non-chelator antifungals with or without light, M. furfur growth (Table 11); assay type: cell-based, Malassezia furfur; settings: for effect of adding light on efficacy: non-chelator antifungals, OD values of Table 11
Protocol: as §1

protoporphyrin IX (PPIX) [2] = test: Protoporphyrin IX levels in treated M. furfur cells by HPLC; assay type: cell-based
M. furfur CBS 7982 = test: Fractional Inhibitor Concentration (FIC): antimicrobial plus 409 nm light on M. furfur growth; assay type: cell-based, Malassezia furfur; settings: for growth, OD 600 nm: 27 h growth
Protocol: Fractional Inhibitor Concentration (FIC) is a conventional methodology for evaluating the interaction of two antimicrobial chemicals. […] In an embodiment of the present invention, FIC is used to determine combinatorial effects of one chemical and exposure to light on Malassezia growth and/or viability in an in vitro system.
• 1. M. furfur CBS 7982 cells are exposed to a varying concentrations of an antimicrobial active (e.g. ZPT, Piroctone Olamine) for a specified amount of time (e.g. 2 min to 3 hours). • 2. After exposure, the antimicrobial is washed away by centrifugation of the cells and a series of washes • 3. Cells are then exposed to light at a wavelength of 409 nm for varying lengths of time • 4. Cells are then allowed to grow up overnight (e.g. 17 h) to determine the impact of the treatment on viability and growth of the organism by measuring OD600 II. Data Analysis: • 1. Inhibition of growth is determined to be where the OD value obtained is <=50% of the untreated control • 2. The lowest concentration value of the antimicrobial agent which inhibits growth is determined • 3. Likewise, the shortest light exposure time is determined that gives growth inhibition • 4. Finally, the combination of the lowest concentration of the antimicrobial and the shortest light exposure time that provides growth inhibition is determined • 5. The FIC value is determined using the calculation below:
[formula] • 6. The combinatorial effect of the antimicrobial and light is classified according to the chart below: […]
(§2) M. furfur is incubated for one hour with varying concentrations of Piroctone Olamine. Cell pellets are collected by centrifugation so that most of the anti-fungal material has been removed. The cell pellet is suspended in PBS and 500 uL samples are distributed to four 12 well plates and treated with light (409 nm) for 1, 10 or 60 minutes or stored in the dark. Samples are then diluted into mDixon, and incubated for 16 h with subsequent growth measured by OD 600 nm.
as §2, with “Hinokitiol.” for “Piroctone Olamine.”, “27” for “16”, “nm. […]” for “nm.”

For `S1SSSSSSS1` [Sulfur], the PPIX (protoporphyrin IX (PPIX) [1]; 8 ppm (Table 11)) was 1.6 ng, the “PPIX levels upon treatment” value (protoporphyrin IX (PPIX) [1]) was “PPIX levels do not change” and the OD600 (M. furfur cells; 8 ppm, Dark) was 4.52. The OD600 (M. furfur cells; 8 ppm, Light) was 3.62 and the “effect of adding light on efficacy” value (M. furfur cells) was “does not increase their efficacy”.
In the case of `CN(C/C=C/C#CC(C)(C)C)Cc1cccc2ccccc12` [Terbinafine], the PPIX (protoporphyrin IX (PPIX) [1]; 0.5 ppm (Table 11, second part)) was 6.7 ng, the “PPIX levels upon treatment” value (protoporphyrin IX (PPIX) [1]) was “PPIX levels do not change” and the OD600 (M. furfur cells; 0.5 ppm, Dark (second part)) was 12.5. For the same compound, the OD600 (M. furfur cells; 0.5 ppm, Light (second part)) was 10.6 and the “effect of adding light on efficacy” value (M. furfur cells) was “does not increase their efficacy”.
In the case of `S=[Se]=S` [SeSx, selenium sulfide], the “PPIX levels upon treatment” value (protoporphyrin IX (PPIX) [1]) was “PPIX levels do not change”, the OD600 (M. furfur cells; 0.4 ppm, Dark) was 3.31 and the OD600 (M. furfur cells; 0.4 ppm, Light) was 2.27. For the same compound, the OD600 (M. furfur cells; 0.8 ppm, Dark) was 1.51, the OD600 (M. furfur cells; 0.8 ppm, Light) was 1.44 and the “effect of adding light on efficacy” value (M. furfur cells) was “does not increase their efficacy”. It also gave a PPIX (protoporphyrin IX (PPIX) [2]; 0.4 ppm (Table 11)) of 2.6 ng and a PPIX (protoporphyrin IX (PPIX) [2]; 0.8 ppm (Table 11)) of 1.2 ng.
For `CC(C)c1cccc(=O)c(O)c1` [Hinokitiol], the “shortest light exposure time when applied in combination to give growth inhibition” value (M. furfur CBS 7982; 409 nm light, with the lowest inhibiting concentration) was 1 min, the “growth, OD 600 nm” value (M. furfur CBS 7982; Hinokitiol 3 ppm 1 h, 409 nm light 0 min) was 8.3 and the “growth, OD 600 nm” value (M. furfur CBS 7982; Hinokitiol 3 ppm 1 h, 409 nm light 1 min) was 7.9. The “growth, OD 600 nm” value (M. furfur CBS 7982; Hinokitiol 3 ppm 1 h, 409 nm light 10 min) was 4.6, the “growth, OD 600 nm” value (M. furfur CBS 7982; Hinokitiol 3 ppm 1 h, 409 nm light 60 min) was 4.5 and the “growth, OD 600 nm” value (M. furfur CBS 7982; Hinokitiol 6 ppm 1 h, 409 nm light 0 min) was 8.5. The “growth, OD 600 nm” value (M. furfur CBS 7982; Hinokitiol 6 ppm 1 h, 409 nm light 1 min) was 1.8, the “growth, OD 600 nm” value (M. furfur CBS 7982; Hinokitiol 6 ppm 1 h, 409 nm light 10 min) was 0.3 and the “growth, OD 600 nm” value (M. furfur CBS 7982; Hinokitiol 6 ppm 1 h, 409 nm light 60 min) was 0.4. The “growth, OD 600 nm” value (M. furfur CBS 7982; Hinokitiol 12 ppm 1 h, 409 nm light 0 min) was 8.6, the “growth, OD 600 nm” value (M. furfur CBS 7982; Hinokitiol 12 ppm 1 h, 409 nm light 1 min) was 2.3 and the “growth, OD 600 nm” value (M. furfur CBS 7982; Hinokitiol 12 ppm 1 h, 409 nm light 10 min) was 0.2. For the same compound, the “growth, OD 600 nm” value (M. furfur CBS 7982; Hinokitiol 12 ppm 1 h, 409 nm light 60 min) was 0.3, the “growth, OD 600 nm” value (M. furfur CBS 7982; Hinokitiol 24 ppm 1 h, 409 nm light 0 min) was 6.1 and the “growth, OD 600 nm” value (M. furfur CBS 7982; Hinokitiol 24 ppm 1 h, 409 nm light 1 min) was 0.6. For the same compound, the “growth, OD 600 nm” value (M. furfur CBS 7982; Hinokitiol 24 ppm 1 h, 409 nm light 10 min) was 0.2, the “growth, OD 600 nm” value (M. furfur CBS 7982; Hinokitiol 24 ppm 1 h, 409 nm light 60 min) was 0.2 and the “growth, OD 600 nm” value (M. furfur CBS 7982; Hinokitiol 48 ppm 1 h, 409 nm light 0 min) was 5.7. The “growth, OD 600 nm” value (M. furfur CBS 7982; Hinokitiol 48 ppm 1 h, 409 nm light 1 min) was 0.2, the “growth, OD 600 nm” value (M. furfur CBS 7982; Hinokitiol 48 ppm 1 h, 409 nm light 10 min) was 0.1 and the “growth, OD 600 nm” value (M. furfur CBS 7982; Hinokitiol 48 ppm 1 h, 409 nm light 60 min) was 0.1. For the same compound, the “growth, OD 600 nm” value (M. furfur CBS 7982; Hinokitiol 96 ppm 1 h, 409 nm light 0 min) was 5.9, the “growth, OD 600 nm” value (M. furfur CBS 7982; Hinokitiol 96 ppm 1 h, 409 nm light 1 min) was 0.3 and the “growth, OD 600 nm” value (M. furfur CBS 7982; Hinokitiol 96 ppm 1 h, 409 nm light 10 min) was 0.0. For the same compound, the “growth, OD 600 nm” value (M. furfur CBS 7982; Hinokitiol 96 ppm 1 h, 409 nm light 60 min) was 0.0, the “lowest concentration to give growth inhibition” value (M. furfur CBS 7982; antimicrobial alone, no light, inhibition = OD <=50% of untreated control) was > 96 ppm and the FIC value (M. furfur CBS 7982; antimicrobial plus 409 nm light) was 0.08. For the same compound, the “Combinatorial Effect” value (M. furfur CBS 7982; antimicrobial plus 409 nm light, classified by FIC value) was “synergistic” and the “lowest concentration when applied in combination with light to give growth inhibition” value (M. furfur CBS 7982; with 409 nm light, inhibition = OD <=50% of untreated control) was 6 ppm.
For `CC(C)(C)C(=O)C(Oc1ccc(Cl)cc1)n1ccnc1` (stereo not shown) [Climbazole], the PPIX (protoporphyrin IX (PPIX) [1]; 1 ppm (Table 11, second part)) was 4.5 ng, the “PPIX levels upon treatment” value (protoporphyrin IX (PPIX) [1]) was “PPIX levels do not change” and the OD600 (M. furfur cells; 1 ppm, Dark (second part)) was 11.9. For the same compound, the OD600 (M. furfur cells; 1 ppm, Light (second part)) was 10.2 and the “effect of adding light on efficacy” value (M. furfur cells) was “does not increase their efficacy”.
